IC50, EC50 and inhibition data for 33 compounds are collected here from patent US20140288040A1, “SUBSTITUTED BENZYLAMINE COMPOUNDS, THEIR USE IN MEDICINE, AND IN PARTICULAR THE TREATMENT OF HEPATITIS C VIRUS (HCV) INFECTION” (ASTEX THERAPEUTICS LIMITED, priority 2011, published 2014).

Experiment [1] has as its target T1, HCV NS3 protease (full length NS34a) (Hepatitis C virus genotype 1b, UniProt P26663).
T1 construct: The protease activity of the full length NS34a was measured using a FRET-based assay; made in house
The experiment can be described thus: HCV NS3 protease assay (FRET, full length NS34a). It counts as biochemical. The following applies: for inhibition at 0.03 µM: read-out: Activity % inhibition @ 0.03 μM, 0.03 μM compound. An outline of the steps: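 FRET readout over 30 minutes at room temperature, with IC50 fitted to initial rates from replicate curves. Enzyme was full-length NS34a; substrate a peptide from the NS4AB cleavage site labelled with QXL520 and 5-FAMsp; buffer 50 mM Tris pH8 containing 20 mM DTT, 1% CHAPS, 10% glycerol and 5% DMSO.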

In experiment [2] the test system is HCV subgenomic replicon in Huh-7 cells. The experiment can be described thus: Replicon assay, EC50 luciferase readout. It counts as cell-based, hepatitis C virus (HCV). An outline of the steps: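 Huh-7 cells carrying a subgenomic HCV replicon (NS3-NS5b, firefly luciferase-neo fusion) were treated with compound for 72 h at 37°C, 5% CO2. EC50 derived from Bright-Glo luciferase signal as a proxy for HCV RNA; cell viability measured in parallel by Alamar blue.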
For orientation: In antiviral work, replicon cells carry a viral genome segment that copies itself.

[3] abbreviates: protease activity of full length NS34a, FRET peptide substrate, read-out: Activity IC50.
[4] abbreviates: Hepatitis C virus, Huh-7, 72 h, Huh-7 replicon cells, 72 h, single value, or second value of a pair x:y, read-out: Activity EC50 (μM) (EC50 luciferase readout).
Where [5] appears, read: IC50 values of 10-150 μM against the protease activity of the full length NS34a, or at least 40% inhibition of protease activity at a concentration of 100 μM.

Molecules are shown by their SMILES. Where a name gives a salt, the structure may show the parent alone. Read-outs that look alike come from different tables or passages of the source. Where only a bound is given, the exact number is not on record here.

As usually defined, the IC50 is the midpoint of a concentration-inhibition curve. In general, EC50 refers to the midpoint of the concentration-response curve. Usually inhibition stands for the drop in the measured response relative to a control, in per cent.

T1 sequence (P26663 1658-1711): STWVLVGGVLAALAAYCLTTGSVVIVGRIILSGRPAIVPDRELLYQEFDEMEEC
T1 sequence (P26663 1027-1657): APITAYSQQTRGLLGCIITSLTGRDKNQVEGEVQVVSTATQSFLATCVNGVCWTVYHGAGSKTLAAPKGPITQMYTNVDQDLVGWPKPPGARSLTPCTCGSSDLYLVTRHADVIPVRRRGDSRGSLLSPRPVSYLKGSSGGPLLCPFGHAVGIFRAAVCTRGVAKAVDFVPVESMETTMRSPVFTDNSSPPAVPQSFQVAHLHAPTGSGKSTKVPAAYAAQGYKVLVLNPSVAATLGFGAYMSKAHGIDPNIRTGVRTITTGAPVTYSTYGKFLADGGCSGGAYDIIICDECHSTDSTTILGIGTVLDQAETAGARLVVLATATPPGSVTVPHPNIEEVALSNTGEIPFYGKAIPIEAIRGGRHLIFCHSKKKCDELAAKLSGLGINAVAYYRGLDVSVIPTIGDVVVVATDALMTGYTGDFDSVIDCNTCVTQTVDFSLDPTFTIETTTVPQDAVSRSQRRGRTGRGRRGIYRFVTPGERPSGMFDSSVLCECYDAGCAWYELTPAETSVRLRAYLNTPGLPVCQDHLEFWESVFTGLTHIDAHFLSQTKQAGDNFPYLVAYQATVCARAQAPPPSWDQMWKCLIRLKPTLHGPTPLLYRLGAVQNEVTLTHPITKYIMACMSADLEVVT

With `CC[C@@H](N[C@@H](C)CC(N)=O)c1ccc(Cl)c(Oc2ccc(NC(C)=O)c(C)c2)c1F` [Example 244, (S)-3-{(R)-1-[3-(4-Acetylamino-3-methyl-phenoxy)-4-chloro-2-fluoro-phenyl]-propylamino}-butyramide.hydrochloride], the IC50 in experiment [1] (setting [3]) came out at 470 nM. In addition, the half-maximal effective concentration (EC50) in experiment [2] (setting [4]) is 0.099 µM.

For `CC[C@@H](N[C@@H](C)CC(N)=O)c1ccc(Cl)c(Oc2cccc(CO)c2)c1F` [Example 116], in experiment [1] (setting [3]), the IC50 was 130 nM. For the same compound, in experiment [2] (setting [4]), the EC50 worked out at 0.19 µM.

In the case of `CC[C@@H](CC(N)=O)N[C@H](CC)c1ccc(Cl)c(Oc2ccccc2)c1F` [Example 134B, (S)-3-[(R)-1-(4-Chloro-2-fluoro-3-phenoxy-phenyl)-propylamino]-pentanoic acid amide.hydrochloride], the IC50 in experiment [1] (setting [3]) turned out to be 84 nM. In addition, the EC50 in experiment [2] (setting [4]) amounted to 0.4 µM.

Turning to `C[C@@H](CC(=O)NCCN)NCc1ccc(Cl)c(Oc2ccccc2)c1F` [Example 329], in experiment [1], the inhibition at 0.03 µM stood at 57%. For the same compound, in experiment [2] (setting [4]), the EC50 was 4 µM.

Turning to `CCC(NC1CCC1)c1ccc(F)c(Oc2ccccc2)c1F` (stereo not shown) [Example 44], the IC50 in experiment [1] (setting [3]) came to 4700 nM. Also, the EC50 in experiment [2] (setting [4]) was determined as 9.9 µM.

For `CC(C)CC(N)c1ccc(F)c(Oc2ccccc2)c1F` (stereo not shown) [Example 2], in experiment [1] (setting [3]), the concentration for half-maximal inhibition (IC50) worked out at 2200 nM. In addition, in experiment [2] (setting [4]), the EC50 is 2.4 µM.

Compound `N[C@H](c1ccc(F)c(Oc2ccccc2)c1F)[C@H]1CCOC1` (relative stereo) [Example 61, C-(2,4-Difluoro-3-phenoxy-phenyl)-C-(tetrahydrofuran-3-yl)-methylamine.hydrochloride] yielded a 50% inhibitory concentration (IC50) in experiment [1] (setting [5]) of 10000 to 150000 nM. In experiment [2] (setting [4]), the EC50 was over 30 µM.

Regarding `CC[C@@H](N[C@@H](C)CC(=O)NCCN)c1ccc(Cl)c(Oc2ccc(N)c(C)c2)c1F` [Example 238B, (S)—N-(2-Amino-ethyl)-3-{(R)-1-[3-(4-amino-3-methyl-phenoxy)-4-chloro-2-fluoro-phenyl]-propylamino}-butyramide], the inhibition at 0.03 µM in experiment [1] was found to be 58%. Further, the EC50 in experiment [2] (setting [4]) worked out at 0.03 µM; in experiment [2] (Hepatitis C virus, Huh-7, replicon assay, set in line with previous observations, read-out: pre-determined EC50 set for the combination experiments), 0.03 µM.

In the case of `CC[C@@H](N[C@@H](C)CC(=O)NCCN)c1ccc(Cl)c(Oc2ccccc2)c1F` [Example 224], the inhibition at 0.01 µM in experiment [1] (read-out: Activity % inhibition @ 0.01 μM) was 65.5%. Besides, the EC50 in experiment [2] (setting [4]) was found to be 0.0088 µM.

Consider `C[C@H](CO)N[C@H](CC1CCNCC1)c1ccc(F)c(Oc2ccccc2)c1F` [Example 90], for which the IC50 in experiment [1] (setting [5]) was in the range of 10000 to 150000 nM. Further, the EC50 in experiment [2] (setting [4]) amounted to 0.36 µM.

For `CC[C@H](N[C@H](C)CO)c1ccc(F)c(Oc2ccccc2)c1F` [Example 65], the IC50 in experiment [1] (setting [3]) was found to be 2100 nM. For the same compound, the half-maximal effective concentration (EC50) in experiment [2] (setting [4]) was 12 µM.

For the compound `CCC(N)c1ccc(F)c(Oc2ccccc2)c1F` (stereo not shown) [Example 3, 1-(2,4-Difluoro-3-phenoxy-phenyl)-propylamine. hydrochloride], the IC50 in experiment [1] (setting [3]) came out at 2100 nM. In addition, in experiment [2] (setting [4]), the EC50 worked out at 22 µM.

For the compound `CCC(NC(C)CC(N)=O)c1ccc(F)c(Oc2ccccc2)c1F` (stereo not shown) [Example 66], in experiment [1] (setting [3]), the IC50 worked out at 750 nM. The EC50 in experiment [2] (setting [4]) was over 30 µM.

As to `CC[C@H](Nc1ncc[nH]1)c1ccc(Cl)c(Oc2ccccc2)c1F` [Example 275, [(S)-1-(4-Chloro-2-fluoro-3-phenoxy-phenyl)-propyl]-(1H-imidazol-2-yl)-amine.hydrochloride], in experiment [1] (setting [3]), the IC50 worked out at 410 nM. Besides, the EC50 in experiment [2] (setting [4]) is over 10 µM.

Turning to `CC(C)NCC(N)c1ccc(F)c(Oc2ccccc2)c1F` (stereo not shown) [Example 19, 1-(2,4-Difluoro-3-phenoxy-phenyl)-N*2*-isopropyl-ethane-1,2-diamine. dihydrochloride], in experiment [1] (setting [3]), the IC50 was determined as 9800 nM. In experiment [2] (setting [4]), the EC50 worked out at 10 µM.

As to `N[C@H]1CC[C@@H](NCc2cccc(Oc3ccccc3)c2)CC1` [Example 281], in experiment [1] (setting [3]), the IC50 was 10000 nM. Further, the half-maximal effective concentration (EC50) in experiment [2] (setting [4]) was found to be 0.79 µM.

As to `CC(CO)NC(c1ccc(F)c(Oc2ccccc2)c1F)C1CCNCC1` (single isomer, unassigned) [Example 76, 2-{[(2,4-Difluoro-3-phenoxy-phenyl)-piperidin-4-yl-methyl]-amino}-propan-1-ol.dihydrochloride], in experiment [1] (setting [3]), the IC50 was 2900 nM. Further, in experiment [2] (Huh-7 replicon cells, 72 h, single value, or second value of a pair x:y, read-out: Activity EC50 (μM) (EC50 luciferase readout)), the 50% effective concentration (EC50) was 6 µM.

As to `CC[C@@H](N[C@H](C)CC(N)=O)c1ccc(Cl)c(Oc2ccc(N)nc2)c1F` [Example 123], the IC50 in experiment [1] (setting [3]) turned out to be 1600 nM. Also, the EC50 in experiment [2] (setting [4]) was 4.7 µM.

Regarding `CC[C@@H](N[C@@H](C)CC(N)=O)c1ccc(Cl)c(Oc2ccc(C#N)c(OC)c2)c1F` [Example 210], the IC50 in experiment [1] (setting [3]) came to 160 nM. The 50% effective concentration (EC50) in experiment [2] (Hepatitis C virus, Huh-7, 72 h, read-out: Activity EC50 (μM) (EC50 luciferase readout), Huh-7 replicon cells, 72 h, single value, or second value of a pair x:y) was 0.2 µM.

As for `CCC(NC(C)c1c[nH]cn1)c1ccc(F)c(Oc2ccccc2)c1F` (stereo not shown) [Example 67], in experiment [1] (setting [3]), the IC50 is 3400 nM. Moreover, the EC50 in experiment [2] (setting [4]) is over 30 µM.

As to `CC[C@@H](Nc1ncc(CN)cn1)c1ccc(Cl)c(Oc2ccccc2)c1F` [Example 8, (5-Aminomethyl-pyrimidin-2-yl)-[(R)-1-(4-chloro-2-fluoro-3-phenoxy-phenyl)-propyl]-amine hydrochloride], the IC50 in experiment [1] (setting [3]) was determined as 330 nM. Besides, the EC50 in experiment [2] (setting [4]) turned out to be 10 µM.

The compound `C[C@H](CC(N)=O)N[C@H](CC1CCNCC1)c1ccc(F)c(Oc2ccccc2)c1F` [Example 85] registered an IC50 in experiment [1] (setting [5]) of 10000 to 150000 nM. The EC50 in experiment [2] (setting [4]) is 18 µM.

As for `N[C@H]1CC[C@H](NCc2cccc(Oc3ccccc3)c2)CC1` [Example 280], in experiment [1] (setting [3]), the IC50 amounted to 5300 nM. In addition, the EC50 in experiment [2] (setting [4]) came to 0.4 µM.

`CC[C@@H](N)c1ccc(Cl)c(Oc2ccc(C#N)c(C)c2)c1F` [Example 221]: the IC50 in experiment [1] (setting [3]) was determined as 430 nM. For the same compound, the EC50 in experiment [2] (setting [4]) is over 30 µM.

Consider `CC[C@@H](N)c1ccc(F)c(Oc2ccccc2)c1F` [Example 11], for which the IC50 in experiment [1] (setting [3]) is 2200 nM. For the same compound, the EC50 in experiment [2] (setting [4]) turned out to be 0.8 µM.

`CC[C@H](N[C@H](C)CC(N)=O)c1ccc(Cl)c(Oc2ccccc2)c1Cl` [Example 325]: in experiment [1] (setting [5]), the IC50 is 10000 to 150000 nM. For the same compound, in experiment [2] (setting [4]), the EC50 is over 10 µM.

Take `CC[C@@H](N[C@@H](C)CC(=O)NC1CNC1)c1ccc(Cl)c(Oc2ccccc2)c1F` [Example 234]: the inhibition at 0.03 µM in experiment [1] was found to be 57%. For the same compound, in experiment [2] (setting [4]), the EC50 worked out at 7.3 µM.

As for `N[C@H](CC1CCNCC1)c1ccc(F)c(Oc2ccccc2)c1F` [Example 82], the concentration for half-maximal inhibition (IC50) in experiment [1] (setting [3]) was 1900 nM. Moreover, in experiment [2] (setting [4]), the EC50 came to 0.79 µM.

On to `CCC(N[C@H]1CC[C@H](N)CC1)c1ccc(F)c(Oc2ccccc2)c1F` (stereo partly drawn) [Example 5, Trans-N-[1′-(2,4-difluoro-3-phenoxy-phenyl)-propyl]-cyclohexane-1,4-diamine], for which the IC50 in experiment [1] (setting [3]) was 2000 nM. The EC50 in experiment [2] (setting [4]) was 0.13 µM.

Take `NC(c1ccc(F)c(Oc2ccccc2)c1F)C1CCNCC1` (stereo not shown) [Example 14, C-(2,4-Difluoro-3-phenoxy-phenyl)-C-piperidin-4-yl-methylamine. dihydrochloride]: the 50% inhibitory concentration (IC50) in experiment [1] (setting [3]) came to 1700 nM. Further, the EC50 in experiment [2] (setting [4]) amounted to 2 µM.

In the case of `CC[C@@H](N[C@@H](C)CC(N)=O)c1ccc(Cl)c(Oc2ccc(N)c(OC)c2)c1F` [Example 255], the IC50 in experiment [1] (setting [3]) is 230 nM. Further, in experiment [2] (setting [4]), the EC50 came to 0.012 µM.

`CC[C@H](NCCC(=O)NCC#N)c1ccc(F)c(Oc2ccccc2)c1F` [Example 91, N-Cyanomethyl-3-[(S)-1-(2,4-difluoro-3-phenoxy-phenyl)-propylamino]-propionamide.hydrochloride]: in experiment [1] (setting [3]), the IC50 was found to be 2400 nM. The EC50 in experiment [2] (setting [4]) is over 10 µM.

Compound `CC[C@@H](N[C@@H](C)CO)c1ccc(F)c(Oc2ccccc2)c1F` [Example 57] displayed an IC50 in experiment [1] (setting [5]) of 10000 to 150000 nM. Also, in experiment [2] (setting [4]), the EC50 turned out to be 29 µM.
